Measured values: patent US6488564B1, “Brassiere protecting against eletrostatic field induced tissue degradation” (priority 1999, dated 2002)

Columns and labels:
[1] = tested on: murine mammary 16/C adenocarcinoma; experiment: Example A: tumor regression by ADM with or without electrostatic field exposure in tumor-bearing mice; assay type: in vivo, B6C3F1 mouse
From the text: The inventor's research protocol used the B6C3F1 mouse strain. […] For the inventor's studies, female mice were implanted with murine mammary 16/C adenocarcinoma, a commonly used tumor for cancer research. […] Approximately equal-sized tumor fragments were implanted in each mouse's axillary region through a puncture in the inguinal region. All test animals were approximately six weeks old, with a body weight of 17 to 20 grams at the time of implant. Also, food and water were provided ad libitum throughout each study, and all Groups were exposed to the same temperature and light conditions (lights on 12 hours and off 12 hours each day). The studies were blinded in both the assignment of the animals to the study groups, and in all tumor measurements.
In the first study noted here, four groups of 11 tumor bearing animal each were used. […] All of the animals were treated with 12 mg/kg ADM on day 4, and housed in cages containing an insulated metal screen suspended 25.4-mm above the animals.
GA: Control, treated with ADM and no electrostatic field exposure. The screen above animals was not charged.
GB: The screen was charged, and changed from positive to negative 15 kV DC once each 15 minutes.
GC: The screen was charged 15 kV DC, and changed from positive to negative once each 15 minutes. The animals were on a grounded wire grid cage floor (115 mm between the screen and floor).
GD: The screen was charged, and changed from positive to negative 15 kV once each 15 minutes. There was no ground plane nearby.

[2] = tested on: B6C3F1 mouse; experiment: Example B: animal deaths after ADM with or without electrostatic field exposure in tumor-bearing mice; assay type: in vivo; design: key to animal death: “X” indicates an animal death
From the text: Before methods for practicing the present invention are discussed, it will be helpful to note the results of examples of the inventor's studies with animals exposed to electrostatic fields, and to electrostatic fields and chemicals in combination. The total scope of the inventor's studies regarding electrostatic field influence inside a living body has involved over 350 tumor bearing rodents, however for the sake of brevity only four such studies will be noted here. The inventor's research protocol used the B6C3F1 mouse strain. This mouse is recognized by the National Cancer Institute as one Standard for chemotherapy research, and is one of the commonly accepted rodent species used in cancer studies. For the inventor's studies, female mice were implanted with murine mammary 16/C adenocarcinoma, a commonly used tumor for cancer research. The 16/C murine mammary tumor is particularly aggressive, and can normally grow from a barely visible, or even invisible, bump under the skin the day after the implant, to 10 to 20 percent of the animal's total body weight by day 14 (tumor size typically up to 4 grams). Approximately equal-sized tumor fragments were implanted in each mouse's axillary region through a puncture in the inguinal region. All test animals were approximately six weeks old, with a body weight of 17 to 20 grams at the time of implant. Also, food and water were provided ad libitum throughout each study, and all Groups were exposed to the same temperature and light conditions (lights on 12 hours and off 12 hours each day). The studies were blinded in both the assignment of the animals to the study groups, and in all tumor measurements.
After the tumors were allow to establish and grow for several days, the mice were treated with adriamycin (ADM), a commonly used chemotherapeutic agent, at dose levels based on their individual weight and known to be safe. Following this, the animals were blindly divided into the study groups. The growth rate of the tumors in a Control Group, without exposure to electrostatic fields, was compared to that of Test Groups that were under the influence of an electrostatic field. Tumor measurements were made by caliper using the prolate ellipsoid formula of the National Cancer Institute to convert the measurements into weight. This method allowed the tumor weight of each animal to be tracked throughout the study.
The mice in each Test Group were subjected to electrostatic fields with the use of special cages. When the application of electrostatic fields was required, special equipment was used to expose the desired animal groups to an electrostatic field with an intensity of approximately 79,000 V/m from a charged element insulated from the animals.
This study used three groups of 11 tumor-bearing animals each. There was not a statistical difference in the size of the animal tumors at the start of the study. All of the animals were treated twice with 8 mg/kg ADM given on days 3 and 5 (16 mg/kg total). In addition, Groups B&C were exposed to an electrostatic field for 4 hours following each injection.
GA: Control, treated with ADM and no electrostatic field exposure.
GB: ADM plus exposure to a negative 15 kV DC charged screen 25.4 mm above, with a grounded grid below, the animals (90 mm between screen and grid).
GC: ADM plus exposure to 15 minute cycles of positive then negative 15 kV DC on a screen 25.4 mm above, with a grounded grid below, the animals (90 mm between screen and grid).
In this study the inventor inadvertently allowed the applied electrostatic fields in Groups B and C to increase the affect of the ADM to a lethal level. […] The electrostatic fields Groups B and C were exposed to increased the reaction of body cells to the ADM, creating the effect of a lethal overdose. […]

Question: How did the tumor wt. loss ([1]; GA: 12 mg/kg ADM on day 4, no electrostatic field exposure (screen not charged)) turn out when COc1cccc2c1C(=O)c1c(O)c3c(c(O)c1C2=O)C[C@@](O)(C(=O)CO)C[C@@H]3O[C@H]1C[C@H](N)[C@H](O)[C@H](C)O1 [ADM, adriamycin] was run?
Answer: −24%

Question: What about the tumor wt. loss ([1]; GB: 12 mg/kg ADM on day 4 plus screen changed positive to negative 15 kV DC each 15 minutes, grounded wire grid below cage) of the same molecule?
Answer: −86%

Question: And the tumor wt. loss ([1]; GC: 12 mg/kg ADM on day 4 plus screen 15 kV DC changed positive to negative each 15 minutes, animals on grounded wire grid cage floor)?
Answer: −80%

Question: And the tumor wt. loss ([1]; GD: 12 mg/kg ADM on day 4 plus screen changed positive to negative 15 kV each 15 minutes, no ground plane nearby)?
Answer: −75%

Question: And the ill affect ([2]; GA: 8 mg/kg ADM days 3 and 5, without exposure to a static field)?
Answer: no ill affect until day 30

Question: And the animal death ([2]; Group A: 8 mg/kg ADM days 3 and 5, no field, day 30 (death from tumor, not ADM))?
Answer: X

Question: What about the animal death ([2]; Group B: 8 mg/kg ADM days 3 and 5 plus negative 15 kV DC field 4 hours after each injection, day 12) of the same molecule?
Answer: XXX

Question: What about the animal death ([2]; Group B: 8 mg/kg ADM days 3 and 5 plus negative 15 kV DC field 4 hours after each injection, day 18) of the same molecule?
Answer: X

Question: What about the animal death ([2]; Group B: 8 mg/kg ADM days 3 and 5 plus negative 15 kV DC field 4 hours after each injection, day 19) of the same molecule?
Answer: X

Question: And the animal death ([2]; Group B: 8 mg/kg ADM days 3 and 5 plus negative 15 kV DC field 4 hours after each injection, day 22)?
Answer: X

Question: And the animal death ([2]; Group B: 8 mg/kg ADM days 3 and 5 plus negative 15 kV DC field 4 hours after each injection, day 28)?
Answer: X

Question: What about the animal death ([2]; Group C: 8 mg/kg ADM days 3 and 5 plus 15 minute cycles of positive then negative 15 kV DC field 4 hours after each injection, day 11) of the same molecule?
Answer: X

Question: And the animal death ([2]; Group C: 8 mg/kg ADM days 3 and 5 plus 15 minute cycles of positive then negative 15 kV DC field 4 hours after each injection, day 12)?
Answer: XXXXX

Question: What about the “necropsy of the dead animals” value ([2]; Groups B and C: 8 mg/kg ADM days 3 and 5 plus electrostatic field) of the same molecule?
Answer: obvious heart enlargement
